Laboratory results published in ChEMBL document CHEMBL1135758, “Toward a pharmacophore for drugs inducing the long QT syndrome: insights from a CoMFA study of HERG K(+) channel blockers” (J Med Chem, 2002).

Tests used:
[1] = biological target: T1, Voltage-gated inwardly rectifying potassium channel KCNH2 (Homo sapiens, UniProt Q12809); test: (§1) K+ channel blocking activity in human embryonic kidney cells expressing HERG Kv11.1
[2] = biological target: T1, Voltage-gated inwardly rectifying potassium channel KCNH2; test: K+ channel blocking activity in Chinese hamster ovary cells expressing HERG Kv11.1; format: functional, cell-based
[3] = biological target: T1, Voltage-gated inwardly rectifying potassium channel KCNH2; test: as §1; format: functional, cell-based

T1 sequence (Q12809 whole entry): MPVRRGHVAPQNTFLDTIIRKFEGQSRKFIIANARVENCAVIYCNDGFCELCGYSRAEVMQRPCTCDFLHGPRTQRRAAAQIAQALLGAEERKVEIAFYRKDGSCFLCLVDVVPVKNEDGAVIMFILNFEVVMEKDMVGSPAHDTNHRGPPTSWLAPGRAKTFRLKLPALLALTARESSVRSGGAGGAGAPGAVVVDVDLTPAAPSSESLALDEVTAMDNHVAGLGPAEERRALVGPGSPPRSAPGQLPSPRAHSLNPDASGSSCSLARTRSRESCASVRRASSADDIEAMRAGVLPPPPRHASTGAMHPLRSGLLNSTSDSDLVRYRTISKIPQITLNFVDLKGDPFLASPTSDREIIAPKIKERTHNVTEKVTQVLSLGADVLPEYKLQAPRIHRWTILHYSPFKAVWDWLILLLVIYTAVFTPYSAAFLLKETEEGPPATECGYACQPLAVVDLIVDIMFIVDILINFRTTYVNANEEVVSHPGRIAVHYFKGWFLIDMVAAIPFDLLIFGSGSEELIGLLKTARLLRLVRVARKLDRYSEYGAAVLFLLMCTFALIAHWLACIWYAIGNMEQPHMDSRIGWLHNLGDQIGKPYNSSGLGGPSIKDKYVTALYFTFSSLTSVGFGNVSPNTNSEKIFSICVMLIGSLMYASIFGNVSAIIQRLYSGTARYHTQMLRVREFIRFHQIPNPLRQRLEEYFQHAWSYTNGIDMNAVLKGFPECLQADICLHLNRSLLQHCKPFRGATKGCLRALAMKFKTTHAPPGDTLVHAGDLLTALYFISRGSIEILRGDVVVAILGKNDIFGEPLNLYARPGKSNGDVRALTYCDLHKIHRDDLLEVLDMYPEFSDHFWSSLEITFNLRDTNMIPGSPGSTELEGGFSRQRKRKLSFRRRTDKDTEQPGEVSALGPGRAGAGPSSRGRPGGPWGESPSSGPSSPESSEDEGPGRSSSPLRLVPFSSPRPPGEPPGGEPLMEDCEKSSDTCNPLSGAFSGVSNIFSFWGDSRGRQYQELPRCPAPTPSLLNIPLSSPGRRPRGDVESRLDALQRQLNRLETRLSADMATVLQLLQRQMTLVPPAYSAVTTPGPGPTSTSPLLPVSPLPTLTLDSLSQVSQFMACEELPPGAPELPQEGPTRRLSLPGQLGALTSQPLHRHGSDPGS

Structure (SMILES)	IC50 [2]	also measured
CN(c1nccc(=O)[nH]1)C1CCN(c2nc3ccccc3n2Cc2ccc(F)cc2)CC1 [MIZOLASTINE]		IC50 [1]: 0.35 µM
CN1CCN(CCCCN2C(=O)CN(/N=C/c3ccc(-c4ccc(Cl)cc4)o3)C2=O)CC1 [AZIMILIDE]	0.56 µM	
COc1c(N2CCNC(C)C2)c(F)cc2c(=O)c(C(=O)O)cn(C3CC3)c12 (centres undefined) [GATIFLOXACIN]	130 µM	
C[C@@H]1CN(c2c(F)c(N)c3c(=O)c(C(=O)O)cn(C4CC4)c3c2F)C[C@H](C)N1 [SPARFLOXACIN]		IC50 [3]: 34.4 µM
